# Source: patent US12066445B2, “System and method for cell levitation and monitoring” (THE BRIGHAM AND WOMEN'S HOSPITAL, INC., priority 2014, dated 2024)
# Structures can show the parent of a compound that is named as a salt.
# How the values were obtained:
# [1] = system: RBCs; assay: Levitation of RBCs after photolysis of caged ATP; assay type: cell-based; conditions: extracellular ATP 0 to close to 10 mM after photolysis, 40 mM Gd+, FIG. 4c
# Excerpt: Consistent with this possibility that UV-induced ROS increased the paramagnetic signature of RBCs, in areas with increased cell density, RBCs formed distinct aggregates, shown as the red circle in FIG. 4b, likely due to weak paramagnetic attraction between ROS-containing RBCs. To test this hypothesis, a burst of extracellular ATP to dissociate 2-3 DPG (2,3-diphosphoglycerate) from hemoglobin was used, a process that also transitions RBCs from diamagnetic to weak paramagnetic cells. Isolated RBCs were washed and resuspended in HBSS^++ containing 40 mM Gd+ and 10 mM caged ATP (Life Technologies). RBCs were loaded into the capillary, placed between the magnets, and allowed to focus. Next, a region of 60×900 μm located about 70 μm above the levitating RBCs was selected and illuminated by a […] for 1 second at 100% intensity. The un-caged ATP, released into the suspension increased the extracellular concentration of ATP from 0 to nearly 10 mM. Cells were recorded using Slidebook 5.5. Following photolysis, caged-ATP became ATP, effectively increasing the concentration of biologically-active, extracellular ATP from 0 to close to 10 mM. […]
# [2] = system: human PMNs; assay: Static levitation of activated and GSH-treated PMNs; assay type: cell-based
# Experimental: Freshly isolated PMNs were activated by incubating them either with buffer (resting PMN), GSH-ME (GSH-treated PMN), or 10 nM PMA (activated PMN) for 5 minutes, washing twice, mixing, and resuspending them in 35 mM Gd+ solution. Prior to treatments, cells were labeled either with Cell Tracker Green (activated PMN) or Cell Mask Deep Red (GSH-treated PMN).
# The response of human PMNs during the activation phase of phagocytosis was studied by incubating PMNs with phorbol 12-myristate 13-acetate (PMA, 10 nM) for 10 minutes. As a control, PMNs were left in buffer for 10 minutes. Cells were then washed, fluorescently labeled, mixed together, and loaded into the magnetic levitation setup.
# [formula] […] The same samples were simultaneously examined by flow cytometry for changes in forward and side-scatter properties of PMNs associated with PMA activation, shown in FIG. 3d.
# To further understand the effect of intracellular ROS on the final position of levitating cells, cell permeable glutathione (GSH), an ROS scavenger was used.
# [3] = system: MDA breast cancer cells
# Experimental: FIG. 12b details the real-time observation of a HCl-applied single cell in which a viability assay was also conducted using Calcein (green fluorescent) for live cell and Propidium Iodine (red fluorescent) for dead cell. Fluorescent images and bright field images were overlapped each other to compose the micrographs at different time point.
# [4] = system: multi-drug resistant E. coli; conditions: cited from earlier work
# [5] = system: multi-drug resistant E. coli; assay: Magnetic levitation profile of multi-drug resistant E. coli after antibiotic treatment; assay type: cell-based; conditions: multi-drug resistant E. coli clinical isolate, 1 mg/mL, two hours, FIG. 22
# Experimental: (§1) In the examples above, to load samples into a microcapillary tube, microcapillaries were simply dipped into the sample vials, and sample filled into the capillary due to capillary forces. For each experiment, new microcapillary was used. Further, unless otherwise stated, cells were resuspended in 200 μL of 40 mM Gadolinium solution and loaded in 1.0×1.0 mm square microcapillary tubes (wall thickness 0.2 mm) by superficial tension action. Critoseal™ was inserted into either end of the microcapillary to prevent cells from drifting during analysis. The capillary was then loaded into a slot between the magnets and cells were imaged using either QImaging Emc^2 EMCCD camera on an Olympus BX62 microscope or a Qimaging EXi CCD camera on a Zeiss Axioscope microscope. For high-resolution images, a fluorescence microscope leveled on its side was perfectly horizontally placed, and used a mirror-free magnetic levitation setup. The images were analyzed with Slidebook 5.5. (3i, Denver, CO), ImageProPlus 7 (Media Cybernetics, Rockville, MD), and iVison 4.7 (Biovision, Exton PA).
# [6] = system: E. coli; assay: Magnetic levitation profile of E. coli after antibiotic treatment; assay type: cell-based; conditions: for change of levitation heights and cellular magnetic profiles versus untreated control: E. coli treated two hours, 1 mg/mL, FIG. 21
# Excerpt: As the bacteria respond to the stimuli and antibiotics, their density are altered. This directly reflects on their levitation heights.
# With forward reference to FIG. 21, differences are illustrated in the observed magnetic levitation profiles of E. coli cells after different types of antibiotic treatment. […] The magnetic levitation profile of each of these antibiotics are compared to a control (i.e., untreated E. coli cells) in FIGS. 21a, 21b, and 21c, respectively.
# as §1
# [7] = system: yeast cells; assay: Viability and magnetic levitation of yeast cells after drug treatment; assay type: cell-based; conditions: for levitation heights, magnetic properties and intrinsic magnetic signatures of yeast cells: 100 μM for 24 hours, 15 minutes of magnetic levitation, FIG. 14b; for viability of yeast cells (optical density): 100 μM, 24 hours, FIG. 14a
# Experimental: Looking at FIG. 14, the magnetic levitation and characteristics of yeast cells are illustrated that have either not been exposed or have been exposed to various drug treatments for some duration of time. FIG. 14a graphs the viability of yeast cells after different drug treatments (i.e., no drug treatment/control, 100 μM cantharidin, or 100 μM fluconazole) for 24 hours. […] FIG. 14b provides micrographs illustrating how, after 15 minutes of magnetic levitation, the levitation heights, magnetic properties and intrinsic magnetic signatures of yeast cells are altered after drug treatment with 100 μM cantharidin and 100 μM fluconazole for 24 hours.
# Turning now to FIG. 15, this figure provides data relating to the observed drug responses and observed changes in magnetic profile of cells. […] FIG. 15d provides various micrographs of cells treated with different concentration of drug (fluconazole), the treatment concentration being listed above each micrograph. […] It is further noted that these changes can be monitored with the magnetic levitation system at the single-cell level.
# as §1
# [8] = system: sickle RBCs; assay: Levitation of healthy and sickle RBCs after sodium metabisulfite-induced dehydration; assay type: cell-based, human; conditions: 10 μM for 10 minutes at room temperature, images after 10 minutes of levitation
# Experimental: RBCs isolated from healthy and sickle cell disease patients were washed three times and incubated with 10 μM sodium metabisulfite for 10 minutes at room temperature. Cells were levitated as described above and images were recorded after 10 minutes. To increase the contrast of the cells against the background, images were filtered using an edge detection algorithm (Roberts).
compound,measurement,setting,value
Nc1ncnc2c1ncn2[C@@H]1O[C@H](COP(=O)(O)OP(=O)(O)OP(=O)(O)O)[C@@H](O)[C@H]1O [ATP],changes in magnetic properties and levitation of RBCs,[1],loss of levitation
"CCOC(=O)CNC(=O)[C@H](CS)NC(=O)CC[C@H](N)C(=O)O [GSH, Glutathione reduced ethyl ester]",final levitation position of treated PMNs,"[2]; 35 mM Gd+ solution, FIG. 3e",equilibrated closer to resting PMNs
"Cl [HCl, hydrochloric acid]",levitation height z of treated cells (bottom of the channel),"[3]; 40 minutes of exposure to 100 mM HCl, FIG. 12a",−500 μm
same,viability assay (Calcein / Propidium Iodine) of a single cell,"[3]; HCl-applied single cell, over 700 seconds, FIG. 12b",dying cell
"CCCCCCCCCCCCCC(=O)O[C@@H]1[C@@H](C)[C@@]2(O)[C@@H](C=C(CO)C[C@]3(O)C(=O)C(C)=C[C@@H]23)[C@@H]2C(C)(C)[C@]12OC(C)=O [PMA, phorbol 12-myristate 13-acetate]","size, shape, optical density, magnetic and mass density signatures versus control PMNs","[2]; 10 nM for 10 minutes, FIG. 3a",distinct differences
same,roundness of cells versus buffer-treated PMNs,"[2]; PMA-activated PMNs, FIG. 3c",significant difference
CC1(C)S[C@@H]2[C@H](NC(=O)[C@H](N)c3ccccc3)C(=O)N2[C@H]1C(=O)O [ampicillin],resistance or susceptibility of the clinical isolate,[4],resistant
same,change in levitation heights and magnetic levitation profiles,[5],no significant change
same,change of levitation heights and cellular magnetic profiles versus untreated control,[6],change the levitation heights and cellular magnetic profiles in a different manner
same,differences between untreated and treated bacteria in magnetic levitation heights,"[6]; E. coli, FIG. 13",significant differences
C[C@@]12C(=O)OC(=O)[C@]1(C)[C@H]1CC[C@@H]2O1 [cantharidin],"levitation heights, magnetic properties and intrinsic magnetic signatures of yeast cells",[7],altered
same,viability of yeast cells (optical density),[7],Different viabilities are observed
O=C(O)c1cn(C2CC2)c2cc(N3CCNCC3)c(F)cc2c1=O [ciprofloxacin],change of levitation heights and cellular magnetic profiles versus untreated control,[6],change the levitation heights and cellular magnetic profiles in a different manner
OC(Cn1cncn1)(Cn1cncn1)c1ccc(F)cc1F [fluconazole],"levitation heights, magnetic properties and intrinsic magnetic signatures of yeast cells",[7],altered
same,viability of yeast cells (optical density),[7],Different viabilities are observed
same,cellular magnetic profiles and single-cell densities,"[7]; 25, 50 or 100 μM, FIG. 15",cellular magnetic profiles and densities change
O=S([O-])S(=O)(=O)[O-].[Na+].[Na+] [sodium metabisulfite],density of a subpopulation of sickle RBCs after treatment,[8],significantly denser than healthy RBCs
gentamicin,resistance or susceptibility of the clinical isolate,[4],susceptible
same,change in levitation heights and magnetic levitation profiles,[5],noticeable change
same,change of levitation heights and cellular magnetic profiles versus untreated control,[6],change the levitation heights and cellular magnetic profiles in a different manner
